Experimental data taken from publication PMC7821381, “Multi-Targeted Anticancer Activity of Imidazolate Phosphane Gold(I) Compounds by Inhibition of DHFR and TrxR in Breast Cancer Cells” (Frontiers in Chemistry, 2021).

Key:
[1] = target: T1, dihydrofolate reductase (DHFR) (Homo sapiens, UniProt P00374); test: DHFR specific enzymatic activity in lysates of treated MDA-MB231 cells; format: cell-based; details: 8 μM (maximum inhibition)
T1 construct: Cell lysates were collected using Cell Culture Lysis Reagent; endogenous in cells; host or cells: MDA-MB231 and SKBR3 (human breast cancer cells)
T1 sequence (P00374 1-187): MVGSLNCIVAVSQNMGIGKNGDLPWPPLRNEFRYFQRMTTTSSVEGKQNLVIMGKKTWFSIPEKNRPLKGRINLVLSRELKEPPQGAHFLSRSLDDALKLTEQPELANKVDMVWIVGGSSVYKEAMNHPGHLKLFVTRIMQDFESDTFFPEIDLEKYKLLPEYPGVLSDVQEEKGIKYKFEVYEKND
Method: (§1) SKBR3, MDA-MB-231 and A17 cells were plated onto 100 mm cell culture dishes (2 × 10^6 cells/ dish). The day after, cells were treated with vehicle alone (DMSO) as control or increasing concentrations of compound 5 and compound 6 in DMEM supplemented with 2% FBS (Invitrogen, Carlsbad, CA) for 4 h or 12 h. Representative pictures of cells treated with compound 5 or 6 at the indicated concentration for 4 or 12 h just before to take cell lysates for the enzymatic tests are reported as supplemental files. Cell lysates were collected using Cell Culture Lysis Reagent (Promega, Madison, WI) supplemented with BSA (1%) and protease inhibitors. DHFR activity was assessed by spectrophotometric assay as reported elsewhere (Wang et al., [2020]) in which the reaction rate was followed by recording the decreasing absorbance at 340 nm due to oxidation of NADPH to NADP^+, using a Shimadzu UV-2450 spectrophotometer. When necessary, because of low protein content in the lysates, the DHFR enzymatic activity was measured by a discontinuous direct HPLC assay using an Agilent 1100 system. HPLC-DAD (Agilent 1100) was used to detect and quantify the presence of NADP^+, as one of the products of DHFR catalyzed reaction, in cell lysates. Fifty microliter of the cell lysate were incubated at 37°C in a reaction mixture containing 760 μl of buffer (0.05 M Hepes pH 7.3), 20 μl of NADPH 4 mM, and 20 μl of dihydrofolate (H2F) 4 mM. The samples for HPLC analysis were prepared as follows: 50 μl aliquots of each mixture were stopped at different times (0, 5, 10, 20, 30, and 60 min) by adding 25 μl of HClO4 1.2 M; after 10 min on ice and centrifugation for 5 min at 12,000 g, 60 μl of each supernatant were neutralized by adding 17.5 μl of K2CO3 0.79 M, kept on ice and centrifuged again. Fifty microliter of the supernatant obtained were directly injected into the reversed phase column for separations of reagents and products of the enzyme catalyzed reaction. The column used is a Supelcosil LC RP 18 (4.6 × 250 mm) with pre-column SupelGuard. The HPLC settings are the same reported in Wang et al. ([2020]). The amounts of product (NADP^+) were determined from the peak areas of the HPLC-separated compounds with reference to appropriate standards. One enzyme unit is defined as the amount of enzyme which catalyzes the reduction of 1 μmol of dihydrofolate, per minute, at 37°C. Enzyme activities were normalized by the protein content, determined by the Bradford assay (Bradford, [1976]).

[2] = target: T2, dihydrofolate reductase (DHFR) (Mus musculus, UniProt P00375); test: DHFR specific enzymatic activity in lysates of treated A17 cells; format: cell-based, murine; details: 6 μM (maximum inhibition)
T2 construct: Cell lysates were collected using Cell Culture Lysis Reagent; endogenous in cells; host or cells: A17 (murine basal-like breast cancer cells)
T2 sequence (P00375 1-187): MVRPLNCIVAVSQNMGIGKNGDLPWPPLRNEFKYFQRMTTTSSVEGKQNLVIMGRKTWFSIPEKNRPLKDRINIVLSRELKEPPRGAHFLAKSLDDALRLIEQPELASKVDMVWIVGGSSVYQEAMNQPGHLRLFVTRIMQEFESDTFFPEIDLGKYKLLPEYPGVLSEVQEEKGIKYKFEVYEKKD
Method: as §1

[3] = test system: thioredoxin reductase (TrxR); details: for Specific enzymatic activity of TrxR: SKBR3, 12 h treatment, 8 μM (maximum inhibition), control 4.07 ± 0.32; for TrxR residual activity: SKBR3 cells, versus control cells
Method: The assay was performed as previously reported (Galassi et al., [2012]) in 0.2 M Na, K-phosphate buffer (pH 7.4) containing 2 mM EDTA. The assay contained 0.12 mM NADPH and different amounts of cell lysate. The reaction was initiated by the addition of 3 mM 5,5′-dithiobis (2-nitrobenzoic acid) (DTNB) and the increase of absorbance was monitored at 412 nm over 5 min at 25°C.

EB-ct-DNA = test: Competitive binding fluorescence study with EtBr (EB-ct-DNA); parameters: species or system calf; details: competitive EtBr displacement, fluorescence quenching, pH 7.4
Excerpt: EtBr weakly emits fluorescence in aqueous solutions (Pasternack et al., [1983]), however in presence of ct-DNA strongly emits at ~600 nm due to strong intercalation between adjacent DNA base pairs. Ethidium bromide (EB) can be employed as a probe for the spectroscopic study of the interaction between DNA and intercalating species because of a 24-fold decrease in its fluorescence when displaced from an intercalation site by the addition of a competitive binding molecule probably due to decreasing in the number of binding sites accessible to EtBr (Tong et al., [2012]). […] Fluorescence quenching spectra were recorded using a Hitachi 4,500 spectrofluorometer with an excitation wavelength of 490 nm and emission spectrum 500–700 nm. The fluorescence spectra were recorded and the fluorescence value of the decrease in emission spectra was corrected according to the relationship:
where Fc and Fm are the corrected and measured fluorescence, respectively. A1 and A2 are the absorbance of tested compounds at the exciting and emission wavelengths. For fluorescence quenching experiments, Stern-Volmer's equation was used (Equation 3): […]

[4] = MDA-MB231, 4 h treatment, control 5.38 ± 0.38
[5] = MDA-MB231, 12 h treatment, control 0.64 ± 0.02
[6] = A17, 4 h treatment, control 1.17 ± 0.06
[7] = A17, 12 h treatment, control 4.77 ± 0.78

Substance | Specific enzymatic activity of DHFR [1, 4] | Specific enzymatic activity of DHFR [1, 5] | Specific enzymatic activity of DHFR [2, 6] | Specific enzymatic activity of DHFR [2, 7] | Specific enzymatic activity of TrxR [3] | TrxR residual activity [3] | EB-ct-DNA Ksv (EB-ct-DNA)
4,5-dicyano-imidazolate-1yl-gold(I)-(triphenylphosphane) [Compound 5] | 2.37 ±0.39 mU/mg | 0.42 ± 0.01 mU/mg | 1.07 ± 0.02 mU/mg | 1.66 ± 0.07 mU/mg | 1.98 ± 0.06 (8 μM) mU/mg | 37% | 1.55 ± 0.34 10^3 M^−1
4,5-dichloro-imidazolate-1yl-gold(I)-(triphenylphosphane) [Compound 6] | 1.75 ± 0.34 mU/mg | 0.55 ± 0.002 mU/mg | 1.03 ± 0.03 mU/mg | 2.01 ± 0.14 mU/mg | 1.51 ± 0.04 (8 μM) mU/mg | 49% | 4.22 ± 0.34 10^3 M^−1
